Source: patent publication US9611221B2, “Histone demethylase inhibitors” (CELGENE QUANTICEL RESEARCH, INC., priority 2012, dated 2017)

Legend:
Assay type in all cases: biochemical
JMJD2C = JMJD2C (Homo sapiens (Human), UniProt Q9H3R0); experiment: JMJD2C in vitro enzyme inhibition assay (TR-FRET); conditions: 0.3 nM JMJD2C, 300 nM H3K9me3-biotin peptide, 2 μM alpha-ketoglutaric acid
Summary of the method: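 Baculovirus-expressed JMJD2C (AA 2-372), 0.3 nM, with 300 nM biotin-H3K9me3 peptide and 2 μM alpha-ketoglutarate in pH 7.3 HEPES buffer with ascorbate and Fe(II); 30 min at room temperature.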

Jarid1A = Jarid1A (Homo sapiens (Human), UniProt P29375); experiment: Jarid1A in vitro enzyme inhibition assay (TR-FRET); conditions: 1 nM Jarid1A, 300 nM H3K4me3-biotin peptide, 2 μM alpha-ketoglutaric acid
Description: (§1) This assay determines the ability of a test compound to inhibit Jarid1A, Jarid1B, and JMJD2C demethylase activity. Baculovirus expressed Jarid1A (GenBank Accession #NM_001042603, AA1-1090) was purchased from BPS Bioscience (Cat#50110). Baculovirus expressed Jarid1B (GenBank Accession #NM_006618, AA 2-751) was purchased from BPS Bioscience (Cat #50121) or custom made by MolecularThroughput. Baculovirus expressed JMJD2C (GenBank Accession #BC143571, AA 2-372) was purchased from BPS Bioscience (Cat#50105).
(§2) The enzymatic assay of Jarid1A activity is based upon Time Resolved-Fluorescence Resonance Energy Transfer (TR-FRET) detection. The ability of test compounds to inhibit the activity of Jarid1A was determined in 384-well plate format under the following reaction conditions: 1 nM Jarid1A, 300 nM H3K4me3-biotin labeled peptide (Anaspec cat #64357), 2 μM alpha-ketoglutaric acid in assay buffer of 50 mM HEPES, pH7.3, 0.005% Brij35, 0.5 mM TCEP, 0.2 mg/ml BSA, 50 μM sodium L-ascorbate, and 2 μM ammonium iron(II) sulfate. Reaction product was determined quantitatively by TR-FRET after the addition of detection reagent Phycolink Streptavidin-allophycocyanin (Prozyme) and Europium-anti-mono- or di-methylated histone H3 lysine 4 (H3K4me1-2) antibody (PerkinElmer) in the presence of 5 mM EDTA in LANCE detection buffer (PerkinElmer) at a final concentration of 25 nM and 1 nM, respectively.
(§3) The reaction mixture was incubated at room temperature for 30 minutes, and terminated by the addition of 6 μl of 5 mM EDTA in LANCE detection buffer containing 50 nM Phycolink Streptavidin-allophycocyanin and 2 nM Europium-anti-H3K4me1-2 antibody. Plates were read by EnVisionMultilabel Reader in TR-FRET mode (excitation at 320 nm, emission at 615 nm and 665 nm) after 1 hour incubation at room temperature. A ratio was calculated (665/615) for each well and fitted to determine inhibition constant (IC50).

Jarid1B = Jarid1B (Homo sapiens (Human), UniProt Q9UGL1); experiment: Jarid1B in vitro enzyme inhibition assay (TR-FRET); conditions: 0.8 nM Jarid1B, 300 nM H3K4me3-biotin peptide, 2 μM alpha-ketoglutaric acid
Description: as §1
as §2, with “The” for “The enzymatic assay of Jarid1A activity is based upon Time Resolved-Fluorescence Resonance Energy Transfer (TR-FRET) detection. The”, “of Jarid1B” for “of Jarid1A”, “conditions: 0.8” for “conditions: 1”, “nM Jarid1B,” for “nM Jarid1A,”
as §3

Jarid1B, sequence (Q9UGL1 2-751): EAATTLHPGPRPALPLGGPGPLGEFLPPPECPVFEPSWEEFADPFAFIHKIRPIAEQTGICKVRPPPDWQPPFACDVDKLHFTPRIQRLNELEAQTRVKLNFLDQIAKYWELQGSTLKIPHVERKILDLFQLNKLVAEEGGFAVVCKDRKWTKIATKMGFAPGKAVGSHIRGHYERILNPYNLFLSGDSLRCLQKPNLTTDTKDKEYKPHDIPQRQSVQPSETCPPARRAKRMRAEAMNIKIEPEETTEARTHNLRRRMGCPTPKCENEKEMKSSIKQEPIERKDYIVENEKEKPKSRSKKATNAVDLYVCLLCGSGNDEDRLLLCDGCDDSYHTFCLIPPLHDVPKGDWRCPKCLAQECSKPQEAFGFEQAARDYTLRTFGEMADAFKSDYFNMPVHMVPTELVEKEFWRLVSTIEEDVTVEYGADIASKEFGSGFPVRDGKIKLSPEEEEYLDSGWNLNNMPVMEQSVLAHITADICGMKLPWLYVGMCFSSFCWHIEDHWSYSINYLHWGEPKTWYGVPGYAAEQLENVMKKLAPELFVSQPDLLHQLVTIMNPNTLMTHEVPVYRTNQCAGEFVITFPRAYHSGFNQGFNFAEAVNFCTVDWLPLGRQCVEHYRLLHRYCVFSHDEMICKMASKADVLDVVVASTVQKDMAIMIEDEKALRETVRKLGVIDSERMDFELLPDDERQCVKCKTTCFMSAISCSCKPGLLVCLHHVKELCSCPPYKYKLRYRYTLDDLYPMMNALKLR
JMJD2C, sequence (Q9H3R0 2-372): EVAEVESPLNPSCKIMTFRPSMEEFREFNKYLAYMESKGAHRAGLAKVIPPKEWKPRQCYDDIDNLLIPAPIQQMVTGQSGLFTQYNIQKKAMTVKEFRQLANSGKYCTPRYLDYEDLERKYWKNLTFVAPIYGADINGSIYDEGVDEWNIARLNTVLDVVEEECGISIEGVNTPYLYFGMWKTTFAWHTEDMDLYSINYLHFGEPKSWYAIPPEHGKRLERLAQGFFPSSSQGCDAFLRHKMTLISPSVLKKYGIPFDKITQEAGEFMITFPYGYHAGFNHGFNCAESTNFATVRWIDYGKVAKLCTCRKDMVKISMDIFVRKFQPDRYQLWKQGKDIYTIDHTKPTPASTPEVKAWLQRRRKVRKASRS
Jarid1A, sequence (P29375 1-1090): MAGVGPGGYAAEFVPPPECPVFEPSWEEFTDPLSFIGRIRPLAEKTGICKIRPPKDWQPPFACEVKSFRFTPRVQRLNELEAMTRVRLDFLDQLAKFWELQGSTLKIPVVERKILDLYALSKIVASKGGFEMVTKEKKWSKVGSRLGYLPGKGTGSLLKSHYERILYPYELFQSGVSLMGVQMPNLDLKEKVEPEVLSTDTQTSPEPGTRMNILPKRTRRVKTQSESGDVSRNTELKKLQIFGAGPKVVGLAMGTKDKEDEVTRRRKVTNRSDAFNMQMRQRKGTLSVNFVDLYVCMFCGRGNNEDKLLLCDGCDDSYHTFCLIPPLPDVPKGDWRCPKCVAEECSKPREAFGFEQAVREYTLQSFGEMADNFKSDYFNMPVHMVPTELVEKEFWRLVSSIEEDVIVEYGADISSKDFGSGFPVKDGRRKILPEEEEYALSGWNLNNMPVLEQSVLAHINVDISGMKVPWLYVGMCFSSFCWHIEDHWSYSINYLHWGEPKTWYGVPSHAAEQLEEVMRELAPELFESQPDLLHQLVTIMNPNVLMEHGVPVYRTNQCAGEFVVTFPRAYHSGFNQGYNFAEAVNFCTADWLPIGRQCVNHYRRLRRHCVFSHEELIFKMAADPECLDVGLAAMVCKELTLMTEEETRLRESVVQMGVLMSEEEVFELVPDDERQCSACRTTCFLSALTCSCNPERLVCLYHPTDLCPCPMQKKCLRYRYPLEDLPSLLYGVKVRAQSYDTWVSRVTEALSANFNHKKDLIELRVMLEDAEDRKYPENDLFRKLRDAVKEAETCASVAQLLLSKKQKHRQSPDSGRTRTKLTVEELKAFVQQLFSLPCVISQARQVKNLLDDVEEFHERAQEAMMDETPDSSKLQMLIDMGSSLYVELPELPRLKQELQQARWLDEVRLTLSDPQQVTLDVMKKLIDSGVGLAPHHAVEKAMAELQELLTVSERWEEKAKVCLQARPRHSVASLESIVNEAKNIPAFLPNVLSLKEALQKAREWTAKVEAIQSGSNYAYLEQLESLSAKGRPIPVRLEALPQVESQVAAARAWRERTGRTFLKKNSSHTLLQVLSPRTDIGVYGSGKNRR

SMILES | IC50 (JMJD2C) | IC50 (Jarid1A) | IC50 (Jarid1B)
O=C(O)c1ccncc1NCc1ccc(Cl)cc1C1CC1 [Example 26, 3-[(4-chloro-2-cyclopropylbenzyl)amino]pyridine-4-carboxylic acid] | 0.1 to 1 µM | ≤ 0.1 µM | ≤ 0.1 µM
O=C(O)c1ccncc1NCC12CC3CC(CC(C3)C1)C2 [Example 42, 3-[(adamantan-1-ylmethyl)amino]pyridine-4-carboxylic acid] | ≤ 0.1 µM | 0.1 to 1 µM | 0.1 to 1 µM
